{"source": "paper PMC10714828", "about": "“Proteomic analysis of anti-MRSA activity of caerin 1.1/1.9 in a murine skin infection model and their in vitro anti-biofilm effects against Acinetobacter baumannii” (Microbiology Spectrum, 2023)", "key": {"[1]": {"test_system": "A. baumannii (GDM1.609)", "assay": "MIC by micro-broth dilution (CLSI)", "type": "cell-based, Acinetobacter baumannii", "conditions": "Fig. 1D; for inhibitory activity on A. baumannii (in words): MIC test; for MIC: micro-broth dilution, 37°C, 24 h, OD 600 nm, three replicates", "method": "(§1) The MIC of F3 against different bacteria were measured by using a micro-broth dilution method developed by the Clinical and Laboratory Standards Institute ([33]). Briefly, the bacterial suspension with absorbance ranging from 0.08 to 0.10 was prepared and 100 µL of the bacterial suspension to a 96 U-shaped well culture plate. The dalbavancin HCl and sodium fusidate were prepared into 328 µM, polymyxin B was prepared at 840.7 µM with phosphate-buffered saline (PBS). Concentrations of F1 and F3 and of F-K were diluted to […] and 479.8 μM, and they were added into 96-well plates with concentration gradients of 310.5, 155.2, 77.6, 38.8, 19.4, 9.7, and 4.9 µM, respectively, with three replicates for each concentration, the equivalent volume of PBS was added as a growth control. The bacteria were cultured at 37°C for 24 h. The optical density (OD) value at 600 nm was measured with a MULTISKAN GO microplate spectrophotometer."}, "[2]": {"test_system": "E. coli (GDM1.176)", "assay": "MIC by micro-broth dilution (CLSI)", "type": "cell-based, Escherichia coli", "conditions": "for inhibition of E. coli growth (in words): MIC test, Fig. 1E", "method": "as §1"}, "[3]": {"test_system": "P. aeruginosa (GDM1.443)", "assay": "MIC by micro-broth dilution (CLSI)", "type": "cell-based,  Pseudomonas aeruginosa", "conditions": "Fig. 1F; for inhibition of P. aeruginosa growth (in words): MIC test", "method": "as §1"}, "[4]": {"test_system": "bacteria", "conditions": "after repeatedly in vitro culture; cited from earlier work", "from_the_text": "Moreover, caerin 1.1 has an additive antibacterial effect when used together with caerin 1.9. Caerin 1.1 and caerin 1.9 prepared in the form of a temperature-sensitive gel inhibit MRSA growth in a skin bacterial infecti ..."}, "[5]": {"conditions": "pH 5.5; cited from earlier work"}}, "note": "Where two headings read alike, the source gives them in different places.", "data": [{"compound": "GLFGVLGSIAKHVLPHVVPVIAEKL-NH2 [F3]", "values": [{"measurement": "inhibitory activity on A. baumannii (in words)", "setting": "[1]", "value": "comparable inhibition"}, {"measurement": "MIC", "setting": "[1]", "value": "around 5 μM"}, {"measurement": "inhibition of E. coli growth (in words)", "setting": "[2]", "value": "suppression of the growth of E. coli and P. aeruginosa at high concentrations"}, {"measurement": "inhibition of P. aeruginosa growth (in words)", "setting": "[3]", "value": "suppression of the growth of E. coli and P. aeruginosa at high concentrations"}, {"measurement": "induction of bacterial resistance", "setting": "[4]", "value": "did not induce bacterial resistance"}, {"measurement": "stability at pH and temperature", "setting": "[5]", "value": "stable at low pH (5.5–7.4) and room temperature"}]}, {"compound": "CN[C@H]1C(=O)N[C@@H]2Cc3ccc(cc3)Oc3cc4cc(c3O[C@@H]3O[C@H](C(=O)O)[C@@H](O)[C@H](O)[C@H]3NC(=O)CCCCCCCCC(C)C)Oc3ccc(cc3Cl)[C@@H](O)[C@@H]3NC(=O)[C@H](NC(=O)[C@@H]4NC(=O)[C@@H](NC2=O)c2cc(cc(O)c2Cl)Oc2cc1ccc2O)c1ccc(O)c(c1)-c1c(O[C@H]2O[C@H](CO)[C@@H](O)[C@H](O)[C@@H]2O)cc(O)cc1[C@@H](C(=O)NCCCN(C)C)NC3=O", "note": "[Dalbavancin, dalbavancin]", "values": [{"measurement": "inhibitory activity on A. baumannii (in words)", "setting": "[1]", "value": "no inhibitory activity"}, {"measurement": "inhibition of E. coli growth (in words)", "setting": "[2]", "value": "incapable of stopping these bacterial growth"}, {"measurement": "inhibition of P. aeruginosa growth (in words)", "setting": "[3]", "value": "incapable of stopping these bacterial growth"}]}, {"compound": "GLLSVLGSVAKHVLPHVVPVIAEHL-NH2 [F1]", "values": [{"measurement": "inhibitory activity on A. baumannii (in words)", "setting": "[1]", "value": "comparable inhibition"}, {"measurement": "MIC", "setting": "[1]", "value": "around 5 μM"}, {"measurement": "inhibition of E. coli growth (in words)", "setting": "[2]", "value": "suppression of the growth of E. coli and P. aeruginosa at high concentrations"}, {"measurement": "inhibition of P. aeruginosa growth (in words)", "setting": "[3]", "value": "suppression of the growth of E. coli and P. aeruginosa at high concentrations"}, {"measurement": "stability at pH and temperature", "setting": "[5]", "value": "stable at low pH (5.5–7.4) and room temperature"}]}, {"compound": "PLLLLLPSLLTATL-NH2 [F-K, positive control antimicrobial peptide]", "values": [{"measurement": "inhibitory activity on A. baumannii (in words)", "setting": "[1]", "value": "comparable inhibition"}, {"measurement": "inhibition of E. coli growth (in words)", "setting": "[2]", "value": "the best at inhibiting these two strains of bacteria"}, {"measurement": "inhibition of P. aeruginosa growth (in words)", "setting": "[3]", "value": "the best at inhibiting these two strains of bacteria"}]}, {"compound": "CC(=O)O[C@H]1C[C@@]2(C)[C@@H](C[C@@H](O)[C@H]3[C@@]4(C)CC[C@@H](O)[C@@H](C)[C@@H]4CC[C@@]32C)/C1=C(\\CCC=C(C)C)C(=O)O", "note": "[Sodium Fusidate, Sodium fusidate]", "values": [{"measurement": "MIC", "setting": "[1]; Acinetobacter baumannii, read-out: MIC", "value": 19.7, "unit": "µM"}, {"measurement": "inhibitory activity on A. baumannii (in words)", "setting": "[1]", "value": "no inhibitory activity"}, {"measurement": "MIC", "setting": "[2]; Escherichia coli, 24 h", "value": 78.7, "unit": "µM"}, {"measurement": "inhibition of E. coli growth (in words)", "setting": "[2]", "value": "incapable of stopping these bacterial growth"}, {"measurement": "inhibition of P. aeruginosa growth (in words)", "setting": "[3]", "value": "incapable of stopping these bacterial growth"}, {"measurement": "MIC", "setting": "[3]; Pseudomonas aeruginosa, micro-broth dilution, 37°C, 24 h, OD 600 nm, three replicates", "value": 78.7, "unit": "µM"}]}]}
